Laboratory results taken from patent publication US20260042769A1, “TRIARYL AGONISTS OF ALPHA-2 ADRENERGIC RECEPTORS” (ALCEPTOR THERAPEUTICS, INC., priority 2023, published 2026).

These compounds were tested against T1, human ADRA2B receptor (Homo sapiens, UniProt P18089) (assay: ADRA2B arrestin agonist assay). Settings: CHO-K1 cells stably expressing human ADRA2B; read-out: Beta-Arrestin - Human Alpha2B EC50.
T1 construct: expressed in transfected cells
T1 sequence (P18089 1-450): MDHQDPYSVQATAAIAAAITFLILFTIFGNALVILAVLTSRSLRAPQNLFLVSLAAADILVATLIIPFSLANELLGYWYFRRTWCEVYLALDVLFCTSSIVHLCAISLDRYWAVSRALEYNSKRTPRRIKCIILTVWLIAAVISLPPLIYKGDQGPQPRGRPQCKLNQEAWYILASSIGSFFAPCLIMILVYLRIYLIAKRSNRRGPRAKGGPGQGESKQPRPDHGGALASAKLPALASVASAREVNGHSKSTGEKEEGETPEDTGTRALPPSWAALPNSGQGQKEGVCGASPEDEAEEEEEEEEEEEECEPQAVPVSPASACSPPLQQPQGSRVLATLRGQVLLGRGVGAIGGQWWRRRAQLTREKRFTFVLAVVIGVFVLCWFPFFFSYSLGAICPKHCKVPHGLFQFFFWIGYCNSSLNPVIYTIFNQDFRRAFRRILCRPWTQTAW
Format: cell-based
Method: ADRA2A and ADRA2B Arrestin Agonist Assay Method
The arrestin assay uses frozen CHO-K1 cell lines stably expressing human ADRA2A and ADRA2B receptors. Cells are frozen following normal cell freezing protocols. Briefly, cells are washed with PBS and then dissociated with 0.25% trypsin. Dissociated cells are quenched in full media and then collected by centrifugation at 290×g for 5 minutes. […] Cells are stored at −80° C. (or in liquid N2 if stored >6 months) until the day of the assay.
On the day before the assay, frozen cells are thawed in a 37° C. water bath, brought up in 20 mL of full media, and collected via centrifugation at 290×g for 5 minutes. […] Cells are incubated overnight in a 37° C., 5% CO2 cell incubator.
On the day of the assay, agonists are diluted in Opti-MEM to 3.5x of the final assay concentration. 4 μL of agonists are added to the cells and incubated for 2 hours at 37° C. in a 5% CO2 cell incubator. 6 μL of arrestin detection reagents are dispensed onto the cells and the plates are incubated for 2 hours at room temperature. […] Plates are read on an Envision luminescence plate reader.
With `CC(C)n1cc(C[C@H](c2c[nH]cn2)c2cccc3c2OCC3)cn1` [Compound 298, 4-[(S)-2-(2,3-dihydro-1-benzofuran-7-yl)-2-(4-imidazolyl)ethyl]-1-isopropylpyrazole] the EC50 was < 10 nM. For `COc1c(C)cccc1C(Cc1cocn1)c1c[nH]cn1` (centres unmarked) [Compound 388, 4-[2-(4-imidazolyl)-2-(2-methoxy-3-tolyl)ethyl]-1,3-oxazole-formic acid (1/1)], the EC50 was > 500 nM. For `Cc1cc(CC(c2c[nH]cn2)c2cccc(C)c2C)nc(C(C)(C)O)n1` (centres unmarked) [Compound 207, 2-{4-[2-(4-imidazolyl)-2-(2,3-xylyl)ethyl]-6-methyl 2-pyrimidinyl}-2-propanol], the EC50 was < 10 nM. With `CNc1ccc(CC(c2c[nH]cn2)c2cccc(C)c2C)cn1` (centres unmarked) [Compound 270, N-methyl{5-[2-(4-imidazolyl)-2-(2,3-xylyl)ethyl]-2-pyridyl}amine] the EC50 was < 10 nM. For `Cc1cccc(C[C@H](c2c[nH]cn2)c2cccc3c2OCC3)n1` [Compound 266, 4-[(S)-1-(2,3-dihydro-1-benzofuran-7-yl)-2-(6-methyl-2-pyridyl)ethyl]imida-], the EC50 was > 500 nM. In the case of `Cc1cccc([C@H](Cc2ccnc(C(C)(C)O)n2)c2c[nH]cn2)c1C` [Compound 211, 2-{4-[(S)-2-(4-imidazolyl)-2-(2,3-xylyl)ethyl]-2-pyrimidinyl}-2-propanol], the EC50 is reported as > 500 nM. `Cc1ncncc1CC(c1c[nH]cn1)c1cccc2c1OCC2` (centres unmarked) [Compound 268, 5-[2-(2,3-dihydro-1-benzofuran-7-yl)-2-(4-imidazolyl)ethyl]-4-methylpyrimidine] showed an EC50 of 50 to 500 nM. Work on `Cn1nc2ccccc2c1CC(c1c[nH]cn1)c1cccc2c1OCC2` (centres unmarked) [Compound 308, 3-[2-(2,3-dihydro-1-benzofuran-7-yl)-2-(4-imidazolyl)ethyl]-2-methyl-2H-indazole] yielded an EC50 of 10 to 50 nM. `Cc1cccc([C@H](Cc2cccc(CF)n2)c2c[nH]cn2)c1C` [Compound 151, 4-{(S)-2-[6-(fluoromethyl)-2-pyridyl]-1-(2,3-xylyl)ethyl}imidazole] gave an EC50 of 50 to 500 nM. Work on `CCOc1ccc(CC(c2c[nH]cn2)c2cccc(C)c2C)cn1` (centres unmarked) [Compound 293, 4-[2-(6-ethoxy-3-pyridyl)-1-(2,3-xylyl)ethyl]imidazole] yielded an EC50 of 10 to 50 nM. For `Cc1cccc([C@H](Cc2ccn(C(F)F)n2)c2c[nH]cn2)c1C` [Compound 280, 3-[(S)-2-(4-imidazolyl)-2-(2,3-xylyl)ethyl]-1-(difluoromethyl)pyrazole], the EC50 was < 10 nM. `Cc1cc(C[C@H](c2c[nH]cn2)c2cccc(C)c2F)ncn1` [Compound 144, 4-[(S)-2-(2-fluoro-3-tolyl)-2-(4-imidazolyl)ethyl]-6-methylpyrimidine] was tested, and the EC50 was > 500 nM. `Cc1cccc([C@@H](Cc2cccc(CO)n2)c2c[nH]cn2)c1C` [Compound 146, {6-[(R)-2-(4-imidazolyl)-2-(2,3-xylyl)ethyl]-2-pyridyl}methanol] was tested, and the EC50 was < 10 nM. With `Cc1cccc(C(Cc2ccnc(C3CCO3)n2)c2c[nH]cn2)c1C` (centres unmarked) [Compound 405, 4-[2-(2,3-dimethylphenyl)-2-(1H-imidazol-4-yl)ethyl]-2-(oxetan-2-yl)pyrimidine] the EC50 was < 10 nM. `COc1nccc(CC(c2ccc(F)c(F)c2)c2c[nH]cn2)n1` (centres unmarked) [Compound 162, 4-[2-(3,4-difluorophenyl)-2-(4-imidazolyl)ethyl]-2-methoxypyrimidine] was tested, and the EC50 was > 500 nM. `COc1nccc(C[C@@H](c2c[nH]cn2)c2cccc3ccn(C)c23)n1` [Compound 348, 4-[(R)-2-(4-imidazolyl)-2-(1-methyl-7-indolyl)ethyl]-2-methoxypyrimidine] was tested, and the EC50 was < 10 nM. For `COc1nccc(C[C@H](c2c[nH]cn2)c2cccc(F)c2OC)n1` [Compound 183, 4-[(S)-2-(3-fluoro-2-methoxyphenyl)-2-(4-imidazolyl)ethyl]-2-methoxypyrimidine], the EC50 was > 500 nM. With `COCc1nccc(C[C@@H](c2c[nH]cn2)c2cccc(C)c2C)n1` [Compound 345, 4-[(R)-2-(4-imidazolyl)-2-(2,3-xylyl)ethyl]-2-(methoxymethyl)pyrimidine] the EC50 was < 10 nM. In the case of `c1cc2c(c([C@@H](Cc3cc[nH]n3)c3c[nH]cn3)c1)OCC2` [Compound 237, 3-[(R)-2-(2,3-dihydro-1-benzofuran-7-yl)-2-(4-imidazolyl)ethyl]pyrazole], the EC50 is reported as > 500 nM. `Cc1cccc([C@@H](Cc2ccnn2C)c2c[nH]cn2)c1F` [Compound 246, 5-[(R)-2-(2-fluoro-3-tolyl)-2-(4-imidazolyl)ethyl]-1-methylpyrazole] gave an EC50 of 50 to 500 nM. In the case of `Cc1cccc(C(Cc2ccnc(C3COC3)n2)c2c[nH]cn2)c1C` (centres unmarked) [Compound 210, 4-[2-(4-imidazolyl)-2-(2,3-xylyl)ethyl]-2-(3-oxetanyl)pyrimidine], the EC50 is reported as < 10 nM. For `Cc1cccc(C(Cc2cncnc2C)c2c[nH]cn2)c1C` (centres unmarked) [Compound 256, 5-[2-(4-imidazolyl)-2-(2,3-xylyl)ethyl]-4-methylpyrimidine], the EC50 was 50 to 500 nM. For `Cc1cccc(C(Cc2ccn3ccnc3c2)c2c[nH]cn2)c1C` (centres unmarked) [Compound 403, 4-[2-(1,3a-diaza-6-indenyl)-1-(2,3-xylyl)ethyl]imidazole], the EC50 was 10 to 50 nM. In the case of `Cc1cccc(C(Cc2ccc(F)c(CO)n2)c2c[nH]cn2)c1C` (centres unmarked) [Compound 318, {3-fluoro-6-[2-(4-imidazolyl)-2-(2,3-xylyl)ethyl]-2-pyridyl}methanol], the EC50 is reported as < 10 nM. `Cc1nccc(CC(c2c[nH]cn2)c2cccc3c2OCCO3)n1` (centres unmarked) [Compound 343, 4-[2-(2,3-dihydro-1,4-benzodioxin-5-yl)-2-(4-imidazolyl)ethyl]-2-methylpyrimidine] was tested, and the EC50 was < 10 nM. `Cc1nsc(CC(c2c[nH]cn2)c2cccc(C)c2C)n1` (centres unmarked) [Compound 264, 5-[2-(4-imidazolyl)-2-(2,3-xylyl)ethyl]-3-methyl-1,2,4-thiadiazole] gave an EC50 of 50 to 500 nM. For `Cc1cccc(C(Cc2ccc3nccn3c2)c2c[nH]cn2)c1C` (centres unmarked) [Compound 401, 4-[2-(1,3a-diaza-5-indenyl)-1-(2,3-xylyl)ethyl]imidazole], the EC50 was < 10 nM. For `Cc1nccc(C[C@H](c2c[nH]cn2)c2cccc(C)c2F)n1` [Compound 142, 4-[(S)-2-(2-fluoro-3-tolyl)-2-(4-imidazolyl)ethyl]-2-methylpyrimidine], the EC50 was > 500 nM. For `Cc1cccc(C(Cc2c(C)ccnc2C)c2c[nH]cn2)c1C` (centres unmarked) [Compound 386, 4-[2-(2,4-dimethyl-3-pyridyl)-1-(2,3-xylyl)ethyl]imidazole], the EC50 was > 500 nM. In the case of `COCc1cccc(CC(c2c[nH]cn2)c2cccc(C)c2C)n1` (centres unmarked) [Compound 294, 4-{2-[6-(methoxymethyl)-2-pyridyl]-1-(2,3-xylyl)ethyl}imidazole], the EC50 is reported as < 10 nM. `COc1c(C)cccc1C(Cc1cc[nH]n1)c1c[nH]cn1` (centres unmarked) [Compound 242, 3-[2-(4-imidazolyl)-2-(2-methoxy-3-tolyl)ethyl]pyrazole] was tested, and the EC50 was > 500 nM. For `Cc1cccc([C@@H](Cc2ccnc(C(C)(C)O)n2)c2c[nH]cn2)c1C` [Compound 212, 2-{4-[(R)-2-(4-imidazolyl)-2-(2,3-xylyl)ethyl]-2-pyrimidinyl}-2-propanol], the EC50 was < 10 nM. For `COc1cc(CC(c2c[nH]cn2)c2cccc(C)c2C)ccn1` (centres unmarked) [Compound 274, 4-[2-(2-methoxy-4-pyridyl)-1-(2,3-xylyl)ethyl]imidazole], the EC50 was < 10 nM. With `Cc1cccc(C(Cc2cocn2)c2c[nH]cn2)c1F` (centres unmarked) [Compound 368, 4-[2-(2-fluoro-3-tolyl)-2-(4-imidazolyl)ethyl]-1,3-oxazole] the EC50 was 50 to 500 nM. With `CCOc1c(F)cccc1C(Cc1ccnc(OC)n1)c1c[nH]cn1` (centres unmarked) [Compound 197, 4-[2-(2-ethoxy-3-fluorophenyl)-2-(4-imidazolyl)ethyl]-2-methoxypyrimidine] the EC50 was 50 to 500 nM. In the case of `Cc1cccc([C@H](Cc2ccn(C3COC3)n2)c2c[nH]cn2)c1C` [Compound 296, 3-[(S)-2-(4-imidazolyl)-2-(2,3-xylyl)ethyl]-1-(3-oxetanyl)pyrazole], the EC50 is reported as 10 to 50 nM. With `Cc1cccc(C(Cc2ncnc3[nH]ccc23)c2c[nH]cn2)c1C` (centres unmarked) [Compound 286, 4-[2-(4-imidazolyl)-2-(2,3-xylyl)ethyl]-1H-1,5,7-triazaindene] the EC50 was < 10 nM. In the case of `COc1nccc(C[C@@H](c2c[nH]cn2)c2cccc(C)c2OC)n1` [Compound 179, 4-[(R)-2-(4-imidazolyl)-2-(2-methoxy-3-tolyl)ethyl]-2-methoxypyrimidine], the EC50 is reported as < 10 nM. `Fc1c(Cl)cccc1C(Cc1cc[nH]n1)c1c[nH]cn1` (centres unmarked) [Compound 251, 3-[2-(3-chloro-2-fluorophenyl)-2-(4-imidazolyl)ethyl]py-razole] showed an EC50 of 50 to 500 nM. With `Cc1cc(CC(c2c[nH]cn2)c2cccc(C)c2C)c(F)cn1` (centres unmarked) [Compound 315, 4-[2-(5-fluoro-2-methyl-4-pyridyl)-1-(2,3-xylyl)ethyl]imidazole] the EC50 was < 10 nM.

Same assay, conditions: read-out: Beta-Arrestin - Human Alpha2B EC50
`Cc1cccc([C@@H](Cc2ccncc2)c2c[nH]cn2)c1C` [Compound 320, 4-[(R)-2-(4-pyridyl)-1-(2,3-xylyl)ethyl]imidazole] was tested, and the EC50 was > 500 nM.
